Assay results reported in US20250345446A1 (Draupnir Bio ApS, priority 2022, published 2025).
Like-named read-outs stand apart in the source and are kept apart here. Residues, ends and D or L forms follow the SMILES beside them. *: point of attachment. Biotin = O=C1N[C@H]2[C@H](CS[C@H]2CCCCC(=O)*)N1

Columns and labels:
[1] = target: T1, Streptavidin-d2 and Sortilin-6His (UniProt P22629+Q99523, V650M); assay: TR-FRET ternary complex formation streptavidin / small molecule bifunctional compound / sortilin; format: binding; conditions: Table 5; 5 μM-0.6 pM, […] incubation
T1 construct: ternary complex formation composed of streptavidin, bifunctional compound and sortilin-6his

[2] = tested on: HEK293 cells expressing full length sortilin receptor; assay: Cellular uptake of NA650 in HEK293/sortilin cells; format: cell-based; conditions: Table 6; NA650 (100 nM), 3 h, biotin warhead compounds
Procedure: Cellular uptake of NA650 was investigated in HEK293 cells expressing full length sortilin receptor (Petersen et. al.). Cells were seeded in poly-L-lysine coated 96-well plates (Perkin Elmer) (40K/well) in 50 μL culture medium (DMEM (Lonza)+10% FBS (SigmaAldrich)+1% penicillin-streptomycin (SigmaAldrich)+1% GlutaMAX (Gibco)+100 μg/mL Zeocin (Invitrogen)) and incubated overnight in cell incubator (37° C., humidified, 5% CO2).
Culture medium was replaced with assay medium (DMEM (Lonza)+10% fetal bovine serum (SigmaAldrich)+1% penicillin-streptomycin (SigmaAldrich)+1% GlutaMAX (Gibco)) containing NA650 (Invitrogen) (100 nM) (Thermo Fischer) and peptidic bifunctional compounds (9.8 nM to 10 μM). Cells were incubated for 3 h in cell incubator before they were washed in dPBS (Bionordika). The DyLight650 signal in the cell layer was detected using a fluorescence plate reader (BMG Labtech Clariostar).
Cellular uptake of NA650 was investigated in HEK293 cells expressing full length sortilin receptor using a methodology analogous to example 3.

[3] = target: T2, soluble ectodomain of sortilin-6his (Homo sapiens, UniProt Q99523, V650M); assay: MST binding to soluble ectodomain of sortilin-6his; conditions: MST, read-out: KD score, binding to sortilin (Kd)
T2 construct: the soluble ectodomain of sortilin-6his is measured by microscale thermophoresis (MST)
T2 sequence (Q99523 with tags, fused parts or gaps V650M): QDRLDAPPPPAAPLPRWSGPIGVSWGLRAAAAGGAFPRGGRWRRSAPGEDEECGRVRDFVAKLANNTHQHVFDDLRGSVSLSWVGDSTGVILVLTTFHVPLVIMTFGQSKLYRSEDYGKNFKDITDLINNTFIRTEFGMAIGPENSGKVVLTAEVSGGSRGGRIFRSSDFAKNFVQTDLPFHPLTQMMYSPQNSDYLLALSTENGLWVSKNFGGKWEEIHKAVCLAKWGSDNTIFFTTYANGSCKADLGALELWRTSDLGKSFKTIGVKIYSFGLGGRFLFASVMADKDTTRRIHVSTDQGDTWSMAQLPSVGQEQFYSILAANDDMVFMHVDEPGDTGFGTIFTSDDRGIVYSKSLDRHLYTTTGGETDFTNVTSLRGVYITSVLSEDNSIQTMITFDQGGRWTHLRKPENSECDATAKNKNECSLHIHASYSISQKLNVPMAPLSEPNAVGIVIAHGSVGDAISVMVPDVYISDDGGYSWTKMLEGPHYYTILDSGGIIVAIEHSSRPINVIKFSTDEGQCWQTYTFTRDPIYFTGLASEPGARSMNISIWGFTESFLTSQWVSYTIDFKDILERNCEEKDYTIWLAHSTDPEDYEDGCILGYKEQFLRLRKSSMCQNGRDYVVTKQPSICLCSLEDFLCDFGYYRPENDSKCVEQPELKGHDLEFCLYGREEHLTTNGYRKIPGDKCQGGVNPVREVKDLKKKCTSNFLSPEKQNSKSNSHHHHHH

TNFa-6His = TNFa-6His (Homo sapiens, UniProt P01375); assay: MST binding to TNFa-6his; conditions: Table 8, NTA labeled TNFa-6His (100 nM), read-out: KD (score), Kd of TNFalpha binding
TNFa-6His, sequence (P01375 77-233 limits assumed): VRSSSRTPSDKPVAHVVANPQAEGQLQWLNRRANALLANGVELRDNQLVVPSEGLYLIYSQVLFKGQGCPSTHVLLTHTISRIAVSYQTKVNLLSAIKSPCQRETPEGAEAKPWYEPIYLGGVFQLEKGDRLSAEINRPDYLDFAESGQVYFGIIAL
From the text: MST was measure analogously to example 1 using TNFa-6his.

[4] = target: streptavidin, bifunctional compound and sortilin-6his (UniProt P22629+Q99523, V650M); assay: TR-FRET ternary complex formation streptavidin / bifunctional peptide / sortilin-6his; conditions: Table 2; […] incubation, HTRF ratio 665/620 nm
[5] = Table 4, small molecule bifunctional compounds
[6] = Table 1, biotin-linker-peptide bifunctional compounds

| Kd (TNFa-6His) | Structure (SMILES) | AUC score, ternary complex formation [1] | AUC score, target internalization [2] | Kd [3, 5] | AUC score, TR-FRET measurements of ternary complex formation [4] | Kd [3, 6] |
| --- | --- | --- | --- | --- | --- | --- |
| – | CC(C)(C)CC[C@H](NC(=O)c1ccc(Oc2cccc(OCCOCCOCCOCCOCCOCCNC(=O)CCCC[C@@H]3SC[C@@H]4NC(=O)N[C@@H]43)c2)nc1)C(=O)O (stereo in doubt) [BF025] | + (AUC < 25.000) | + (AUC < 100) | 0.01 to 0.25 µM | – | – |
| – | CC(C)(C)CC[C@H](NC(=O)c1ccc(Oc2cccc(OCCOCCOCCOCCOCCOCCOCCOCCNC(=O)CCCC[C@@H]3SC[C@@H]4NC(=O)N[C@@H]43)c2)nc1)C(=O)O [BF017, (2S)-2-[[6-[3-[2-[2-[2-[2-[2-[2-[2-[2-[5-[(3aS,4S,6aR)-2-oxo-1,3,3a,4,6,6a-hexahydrothieno[3,4-d]imidazol-4-yl]pentanoylamino]ethoxy]ethoxy]ethoxy]ethoxy]ethoxy]ethoxy]ethoxy]ethoxy]phenoxy]pyridine-3-carbonyl]amino]-5,5-dimethyl-hexanoic acid] | + (AUC < 25.000) | ++ (AUC > 100) | 0.001 to 0.01 µM | – | – |
| – | CC(C)(C)CC[C@H](NC(=O)c1ccc(Oc2cccc(OCCOCCOCCOCCOCCOCCOCCNC(=O)CCCC[C@@H]3SC[C@@H]4NC(=O)N[C@@H]43)c2)nc1)C(=O)O [BF019, (2S)-2-[[6-[3-[2-[2-[2-[2-[2-[2-[2-[5-[(3aS,4S,6aR)-2-oxo-1,3,3a,4,6,6a-hexahydrothieno[3,4-d]imidazol-4-yl]pentanoyl-amino]ethoxy]ethoxy]ethoxy]ethoxy]ethoxy]ethoxy]ethoxy]phenoxy]pyridine-3-carbonyl]amino]-5,5-dimethyl-hexanoic acid] | + (AUC < 25.000) | + (AUC < 100) | 0.001 to 0.01 µM | – | – |
| – | CC(C)(C)CC[C@H](NC(=O)c1ccc(Oc2cccc3c(C(=O)NCCCNC(=O)CCOCCOCCOCCOCCNC(=O)CCCC[C@@H]4SC[C@@H]5NC(=O)N[C@@H]54)cccc23)nc1)C(=O)O [BF020, (2S)-2-[[6-[[5-[3-[3-[2-[2-[2-[2-[5-[(3aS,4S,6aR)-2-oxo-1,3,3a,4,6,6a-hexahydrothieno[3,4-d]imidazol-4-yl]pentanoylamino]ethoxy]ethoxy]ethoxy]ethoxy]propanoylamino]propylcarbamoyl]-1-naphthyl]oxy]pyridine-3-carbonyl]amino]-5,5-dimethyl-hexanoic acid] | ++ (AUC > 25.000) | ++ (AUC > 100) | 0.01 to 0.25 µM | – | – |
| – | CC(C)(C)CC[C@H](NC(=O)c1ccc(Oc2cccc(C(=O)NCCOCCOCCOCCOCCOCCOCCNC(=O)CCCC[C@@H]3SC[C@@H]4NC(=O)N[C@@H]43)c2)nc1)C(=O)O [BF023, (2S)-2-[[6-[3-[2-[2-[2-[2-[2-[2-[2-[5-[(3aS,4S,6aR)-2-oxo-1,3,3a,4,6,6a-hexahydrothieno[3,4-d]imidazol-4-yl]pentanoylamino]ethoxy]ethoxy]ethoxy]ethoxy]ethoxy]ethoxy]ethylcarbamoyl]phenoxy]pyridine-3-carbonyl]amino]-5,5-dimethyl-hexanoic acid] | + (AUC < 25.000) | + (AUC < 100) | 0.01 to 0.25 µM | – | – |
| – | CC(C)(C)CC[C@H](NC(=O)c1ccc(Oc2cccc(OCCOCCOCCOCCOCCOCCOCCOCCOCCNC(=O)CCCC[C@@H]3SC[C@@H]4NC(=O)N[C@@H]43)c2)nc1)C(=O)O [BF026, (2S)-2-[[6-[3-[2-[2-[2-[2-[2-[2-[2-[2-[2-[5-[(3aS,4S,6aR)-2-oxo-1,3,3a,4,6,6a-hexahydrothieno[3,4-d]imidazol-4-yl]pentanoylamino]ethoxy]ethoxy]ethoxy]ethoxy]ethoxy]ethoxy]ethoxy]ethoxy]ethoxy]phenoxy]pyridine-3-carbonyl]amino]-5,5-dimethyl-hexanoic acid] | ++ (AUC > 25.000) | ++ (AUC > 100) | 0.01 to 0.25 µM | – | – |
| < 2 µM | Cc1nc2cc(F)c(-c3cnc(OCCCCCn4cc(COCCOCCOCCOCCNC(=O)c5ccc(Oc6cccc(OCC(=O)N[C@@H](CCC(C)(C)C)C(=O)O)c6)nc5)nn4)nc3)nc2c(N[C@H](C)c2cc(C#N)ccc2F)c1Cl [BF076] | – | – | 0.01 to 0.25 µM | – | – |
| < 2 µM | Cc1nc2cc(F)c(-c3cnc(OCCOCCOCCOCCOCCOCCOCCNC(=O)c4ccc(Oc5cccc(OCC(=O)N[C@@H](CCC(C)(C)C)C(=O)O)c5)nc4)nc3)nc2c(N[C@H](C)c2cc(C#N)ccc2F)c1Cl [BF079] | – | – | – | – | – |
| < 2 µM | Cc1cc(-c2ccc(OCC(=O)NCCOCCOCc3cn(CCCCCOc4ncc(-c5nc6c(N[C@@H](C)c7cc(C#N)ccc7F)c(Cl)c(C)nc6cc5F)cn4)nn3)cc2)cc(NC(=O)c2ccc(C(F)(F)F)cc2C(=O)O)n1 [BF080] | – | – | < 0.001 µM | – | – |
| < 2 µM | C[C@@H]1CN(c2ncc(-c3ccc4c(n3)N(Cc3cccnc3C#N)C(C)(C)C4=O)cn2)CCN1C(=O)CNC(=O)CCCCCCCCCCn1cc(-c2cccc(Oc3ccc(C(=O)N[C@@H](CCC(C)(C)C)C(=O)O)cn3)c2)nn1 [BF081, (2S)-2-[[6-[3-[1-[11-[[2-[(2R)-4-[5-[1-[(2-cyano-3-pyridyl)methyl]-2,2-dimethyl-3-oxo-pyrrolo[2,3-b]pyridin-6-yl]pyrimidin-2-yl]-2-methyl-piperazin-1-yl]-2-oxo-ethyl]amino]-11-oxo-undecyl]triazol-4-yl]phenoxy]pyridine-3-carbonyl]amino]-5,5-dimethyl-hexanoic acid] | – | – | 0.001 to 0.01 µM | – | – |
| > 2 µM | C[C@@H]1CN(c2ncc(-c3ccc4c(n3)N(Cc3cccnc3C#N)C(C)(C)C4=O)cn2)CCN1C(=O)CNC(=O)COCCOCCOCCOCCOc1cccc(Oc2ccc(C(=O)N[C@@H](CCC(C)(C)C)C(=O)O)cn2)c1 [BF082] | – | – | 0.001 to 0.01 µM | – | – |
| < 2 µM | C[C@@H]1CN(c2ncc(-c3ccc4c(n3)N(Cc3cccnc3C#N)C(C)(C)C4=O)cn2)CCN1C(=O)CNC(=O)CCCCCOCCOCCNC(=O)c1cccc(Oc2ccc(C(=O)N[C@@H](CCC(C)(C)C)C(=O)O)cn2)c1 [BF0100] | – | – | – | – | – |
| – | CC(C)C[C@H](NC(=O)[C@H](CC(C)C)NC(=O)[C@H](CCC(N)=O)NC(=O)[C@H](CCCNC(=N)N)NC(=O)CNC(=O)[C@H](CO)NC(=O)CNC(=O)CNC(=O)CNC(=O)CNC(=O)[C@H](CO)NC(=O)CNC(=O)CNC(=O)CCCC[C@@H]1SC[C@@H]2NC(=O)N[C@@H]21)C(=O)O [compound 141] (Biotin-GGSGGGGSGRQLL-OH) | – | – | – | + (AUC < 5000) | < 0.1 µM |
| – | CC(C)C[C@H](NC(=O)[C@H](CC(C)C)NC(=O)[C@H](CCC(N)=O)NC(=O)[C@H](CCCNC(=N)N)NC(=O)[C@H](CO)NC(=O)CNC(=O)CNC(=O)CNC(=O)CNC(=O)[C@H](CO)NC(=O)CNC(=O)CNC(=O)CNC(=O)CNC(=O)[C@H](CO)NC(=O)CNC(=O)CNC(=O)CCCC[C@@H]1SC[C@@H]2NC(=O)N[C@@H]21)C(=O)O [compound 142] (Biotin-GGSGGGGSGGGGSRQLL-OH) | – | – | – | + (AUC < 5000) | < 0.1 µM |
| – | CC(C)C[C@H](NC(=O)[C@H](CC(C)C)NC(=O)[C@H](CCC(N)=O)NC(=O)[C@H](Cc1ccccc1)NC(=O)CNC(=O)[C@H](CO)NC(=O)CNC(=O)CNC(=O)CNC(=O)CNC(=O)[C@H](CO)NC(=O)CNC(=O)CNC(=O)CCCC[C@@H]1SC[C@@H]2NC(=O)N[C@@H]21)C(=O)O [compound 145] (Biotin-GGSGGGGSGFQLL-OH) | – | – | – | + (AUC < 5000) | < 0.1 µM |
| – | CC(C)C[C@H](NC(=O)[C@H](CC(C)C)NC(=O)[C@H](CCC(N)=O)NC(=O)[C@H](Cc1ccccc1)NC(=O)[C@H](CO)NC(=O)CNC(=O)CNC(=O)CNC(=O)CNC(=O)[C@H](CO)NC(=O)CNC(=O)CNC(=O)CNC(=O)CNC(=O)[C@H](CO)NC(=O)CNC(=O)CNC(=O)CCCC[C@@H]1SC[C@@H]2NC(=O)N[C@@H]21)C(=O)O [compound 146] (Biotin-GGSGGGGSGGGGSFQLL-OH) | – | – | – | ++ (AUC > 5000) | 0.1 to 2 µM |
| – | CC(C)C[C@H](NC(=O)[C@H](CC(C)C)NC(=O)[C@H](CCC(N)=O)NC(=O)[C@H](Cc1ccccc1)NC(=O)CNC(=O)CNC(=O)CNC(=O)[C@H](CO)NC(=O)CNC(=O)CNC(=O)CNC(=O)CNC(=O)[C@H](CO)NC(=O)CNC(=O)CNC(=O)CCCC[C@@H]1SC[C@@H]2NC(=O)N[C@@H]21)C(=O)O [compound 148] (Biotin-GGSGGGGSGGGFQLL-OH) | – | – | – | ++ (AUC > 5000) | 0.1 to 2 µM |
| – | CC(C)C[C@H](NC(=O)[C@H](CC(C)C)NC(=O)[C@H](CCC(N)=O)NC(=O)[C@H](CCCNC(=N)N)NC(=O)CNC(=O)CNC(=O)CNC(=O)[C@H](CO)NC(=O)CNC(=O)CNC(=O)CNC(=O)CNC(=O)[C@H](CO)NC(=O)CNC(=O)CNC(=O)CCCC[C@@H]1SC[C@@H]2NC(=O)N[C@@H]21)C(=O)O [compound 149] (Biotin-GGSGGGGSGGGRQLL-OH) | – | – | – | + (AUC < 5000) | 0.1 to 2 µM |
